The numbers were not newly measured in patent US4556678A (Key Pharmaceuticals, Inc., priority 1982, dated 1985), which cites them from elsewhere.

Where [1] appears, read: oral formulations currently in use.

As to `CC(C)NCC(O)COc1cccc2ccccc12` (stereo not drawn) [Propranolol, propranolol], the bioavailability result (administration with food) is recorded as “enhance its bioavailability”. Under setting [1], the “absorption from the gastrointestinal tract” value is “almost completely absorbed” and the liver metabolism entry is “subject to rapid liver metabolism”.
